Source: publication PMC9411522, “Ginsenoside Rg5 allosterically interacts with P2RY12 and ameliorates deep venous thrombosis by counteracting neutrophil NETosis and inflammatory response” (Frontiers in Immunology, 2022)

Legend:
P2RY12 [1] = biological target: T1, P2RY12 (Homo sapiens, UniProt Q9H244); experiment: SPR (Biacore T200, His-captured purified P2RY12, steady-state affinity); antagonism of 2MesADP signalling in CHO-P2RY12 cells; type: binding
P2RY12 [2] = biological target: T1, P2RY12; experiment: biochemical

T1 sequence (Q9H244 whole entry, one chain of several): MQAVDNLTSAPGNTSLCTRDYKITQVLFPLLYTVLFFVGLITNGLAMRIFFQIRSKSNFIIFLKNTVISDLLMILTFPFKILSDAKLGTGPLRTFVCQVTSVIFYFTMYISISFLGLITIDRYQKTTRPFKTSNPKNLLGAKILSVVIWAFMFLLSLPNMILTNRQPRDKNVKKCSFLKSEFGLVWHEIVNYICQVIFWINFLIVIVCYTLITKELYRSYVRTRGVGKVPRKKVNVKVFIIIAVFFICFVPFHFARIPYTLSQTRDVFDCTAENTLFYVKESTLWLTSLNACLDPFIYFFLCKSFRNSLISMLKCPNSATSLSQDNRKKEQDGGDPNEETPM

| Kd (P2RY12 [2]) | Structure (SMILES) | Kd (P2RY12 [1]) |
| --- | --- | --- |
|  | CC(C)=CC/C=C(\C)[C@H]1CC[C@]2(C)[C@@H]1[C@H](O)C[C@@H]1[C@@]3(C)CC[C@H](O[C@@H]4O[C@H](CO)[C@@H](O)[C@H](O)[C@H]4O[C@@H]4O[C@H](CO)[C@@H](O)[C@H](O)[C@H]4O)C(C)(C)[C@@H]3CC[C@]12C [Rg5, Ginsenoside Rg5] | 330 nM |
| 102 nM | CCCSc1nc(N[C@@H]2C[C@H]2c2ccc(F)c(F)c2)c2nnn([C@@H]3C[C@H](OCCO)[C@@H](O)[C@H]3O)c2n1 [Ticagrelor] |  |
